The text below walks through data of patent US10525187B2, “Apparatus for removing protein-bound toxins from blood plasma” (Fresenius Medical Care Deutschland GmbH, priority 2012, dated 2020).

This assay has as its target bovine serum albumin (Bos taurus, UniProt P02769). Put plainly: Dialysis module, HF field effect in the frequency range 1 to 170 MHz on separation of phenylacetic acid (Embodiment 2). The assay is classed as in vitro ADME. The settings on record: BSA 60 mg/ml, toxin 1 mmol/l. The method, then:
A dialysis module was set up for this purpose in that conventional hemofiltration capillaries were cast as loops using silicone into a syringe receiving neck. An aqueous albumin solution was introduced into the respective module in the presence of the uremic toxins phenylacetic acid, p-hydroxyhippuric acid and indoxyl sulfate. This solution was filtered with the dialysis module using a syringe pump for 10 min. […] The electromagnetic field is incremented by means of a high-frequency voltage source over a period of 10 minutes from […] in steps of 1 MHz. […] The effect of the HF field on the bond between the proteins and the uremic toxins was able to be evaluated by a comparison of the uremic toxin concentration in the resulting filtrates.
The HF field was varied in subbands of 10 MHz in the frequency range 1-170 MHz and was compared with a control experiment without an HF field.
The quantitative determination of the phenylacetic acid was performed using HPLC.
The results of the experiments are collected in FIG. 9. […] The effect was particularly pronounced at 54.6% in the subband from 110 to 120 MHz.

Sequence of bovine serum albumin (P02769 25-607): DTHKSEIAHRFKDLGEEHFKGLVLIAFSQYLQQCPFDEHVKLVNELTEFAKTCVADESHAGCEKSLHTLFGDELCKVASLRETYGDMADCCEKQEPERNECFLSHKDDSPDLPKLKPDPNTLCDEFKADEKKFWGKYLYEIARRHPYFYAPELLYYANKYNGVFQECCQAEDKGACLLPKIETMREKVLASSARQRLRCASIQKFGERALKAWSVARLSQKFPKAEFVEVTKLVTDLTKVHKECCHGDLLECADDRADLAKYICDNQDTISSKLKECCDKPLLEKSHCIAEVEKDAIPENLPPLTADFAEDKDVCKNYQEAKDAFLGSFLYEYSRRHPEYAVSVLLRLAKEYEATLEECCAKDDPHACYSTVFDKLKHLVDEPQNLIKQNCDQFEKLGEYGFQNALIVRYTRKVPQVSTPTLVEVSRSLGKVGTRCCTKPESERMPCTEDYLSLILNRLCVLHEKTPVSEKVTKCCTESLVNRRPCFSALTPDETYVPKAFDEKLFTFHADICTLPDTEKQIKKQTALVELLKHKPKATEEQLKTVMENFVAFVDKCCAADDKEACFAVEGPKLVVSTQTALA

Regarding `O=C(O)Cc1ccccc1` [phenylacetic acid], the “increase of separation rate under the influence of the HF field” value runs as follows: (HF field 1-170 MHz in subbands of 10 MHz vs control without HF field) “at least 45.3%”; (subband from 110 to 120 MHz vs control without HF field) 54.6%.
